Where two headings read alike, the source gives them in different places.
Assays:
Human Serotonin 5-HT6R [1] = target: T1, Human Serotonin 5-HT6R (Homo sapiens, UniProt P50406); test: 5-HT6R functional assay, agonistic mode (cAMP, 1321N1 cells); assay type: cell-based; conditions: agonistic mode; read-out: 5-HT6 EC50
T1 construct: host or cells: 1321N1 (frozen recombinant cells)
Method: (§1) The properties of compounds to inhibit cAMP production induced by a 5-HT6R agonist 5-CT (1000 nM) was evaluated. Compounds were tested in triplicate at eight concentrations (10^−11–10^−4 M). The level of cAMP was measured using frozen recombinant 1321N1 cells expressing the Human Serotonin 5-HT6R (PerkinElmer). Total cAMP was measured using the LANCE cAMP Detection Kit (PerkinElmer), according to the manufacturer’s instructions. For quantification of cAMP levels, 2000 cells/well ([…]) were incubated with a mixture of compounds ([…]) for 30 min at room temperature in a 384-well white opaque microtiter plate. After incubation, the reaction was stopped and cells were lysed by the addition of […] of working solution ([…] ULight-anti-cAMP) for 1 h at room temperature. Time-resolved fluorescence resonance energy transfer (TR-FRET) was detected by an Infinite M1000 Pro (Tecan) using instrument settings from the LANCE cAMP Detection Kit manual. […] The agonistic properties of compounds were determined with an analogous procedure, but without stimulation with 5-CT [10, 36].

Human Serotonin 5-HT6R [2] = target: T1, Human Serotonin 5-HT6R; test: 5-HT6R functional assay, antagonistic mode (cAMP induced by 5-CT, 1321N1 cells); assay type: cell-based; conditions: antagonistic mode, 5-CT 1000 nM; read-out: 5-HT6 Kb
Method: as §1

[3] = Metabolic stability, incubation with mouse liver microsomes; assay type: in vitro ADME; conditions: MLMs, 50 µM, 2 h
Method: The murine liver microsomes (MLMs) were purchased from Sigma-Aldrich (St. Louis, MO, USA). To determine metabolic pathways, the tested compounds (50 µM) were incubated with 100 mM Tris-HCl buffer at 37 °C with MLMs (1 mg/mL) and NADPH Regeneration System for 2 h. Reactions were quenched with cold, pure methanol and mixtures were centrifuged 14,000 g for 15 min. The supernatants were analyzed using LCMS. The additional MS ion fragmentation of the product and the substrate were performed to determine the most probable structure of the metabolite.

CYP3A4 = target: T2, CYP3A4 (Homo sapiens, UniProt P08684); test: CYP3A4 P450-Glo luminescent assay; assay type: in vitro ADME; conditions: compared to ketoconazole; 0.01 to 25 µM
T2 construct: purchased Promega (Madison, WI, USA)
T2 sequence (P08684 whole entry): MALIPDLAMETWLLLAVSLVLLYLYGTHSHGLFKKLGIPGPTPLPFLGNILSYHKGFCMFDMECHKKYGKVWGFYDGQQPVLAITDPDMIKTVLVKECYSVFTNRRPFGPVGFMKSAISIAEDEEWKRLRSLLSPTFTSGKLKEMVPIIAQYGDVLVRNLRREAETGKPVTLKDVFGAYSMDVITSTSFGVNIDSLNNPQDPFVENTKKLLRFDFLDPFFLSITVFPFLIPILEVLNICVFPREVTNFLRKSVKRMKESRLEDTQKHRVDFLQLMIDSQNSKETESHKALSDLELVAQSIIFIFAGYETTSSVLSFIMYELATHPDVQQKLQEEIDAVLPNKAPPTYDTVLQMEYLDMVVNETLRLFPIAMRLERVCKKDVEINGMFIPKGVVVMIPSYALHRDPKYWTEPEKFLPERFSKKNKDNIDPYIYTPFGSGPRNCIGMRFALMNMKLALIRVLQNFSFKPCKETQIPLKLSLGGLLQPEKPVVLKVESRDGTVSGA
Method: The experiments were provided using commercially available luminescent CYP3A4 P450-Glo™ and CYP2D6 P450-Glo™ tests purchased from Promega (Madison, WI, USA). The enzymatic reactions were conducted in polystyrene, flat-bottom Nunc™ MicroWell™ 96-well microplates (Thermo Scientific, Waltham, MA, USA). The assays were carried out according to the procedures provided by the manufacturer, as described previously. Compounds were tested in triplicate at the final concentrations in a range from 0.01 to 25 µM for both isoforms of CYP450. The references of CYP3A4 and CYP2D6 inhibitors (ketoconazole and quinidine, respectively) were tested in a range from 0.001 to 10 µM. Tested compounds were incubated in 100 mM Tris-HCl buffer separately with CYP3A4 and CYP2D6 membranes and the NADPH Regeneration System for 30 min at room temperature in triplicate. The bioluminescent signal was measured after the addition of the Luciferin Detection Reagent by using a microplate reader EnSpire PerkinElmer (Waltham, MA, USA). Both reagents (NADPH Regeneration System and Luciferin Detection Reagent) were purchased from Promega (Madison, WI, USA).

HepG2 cell line = test: Hepatotoxicity assay, HepG2 viability; assay type: cell-based; conditions: 1 μM, 72 h
Method: To estimate the hepatotoxicity of compounds, the hepatoma HepG2 (ATCC® HB-8065TM) cell line was used according to previously described protocols. The CellTiter 96® AQueous Non-Radioactive Cell Proliferation Assay was obtained from Promega (Madison, WI, USA). The compounds were tested in quadruplicate at four concentrations (1–100 µM) for 72 h.

[4] = PAMPA
[5] = Metabolic stability, incubation with mouse liver microsomes; assay type: in vitro ADME; conditions: MLMs, prolonged incubation
in vitro = conditions: PAMPA, pH 7.4
D2R [6] = target: T3, D2R (Homo sapiens, UniProt P14416); test: D2R functional assay, antagonist mode (cAMP, HEK293 cells); assay type: cell-based; set-up: expressed in transfected cells
T3 sequence (P14416 whole entry): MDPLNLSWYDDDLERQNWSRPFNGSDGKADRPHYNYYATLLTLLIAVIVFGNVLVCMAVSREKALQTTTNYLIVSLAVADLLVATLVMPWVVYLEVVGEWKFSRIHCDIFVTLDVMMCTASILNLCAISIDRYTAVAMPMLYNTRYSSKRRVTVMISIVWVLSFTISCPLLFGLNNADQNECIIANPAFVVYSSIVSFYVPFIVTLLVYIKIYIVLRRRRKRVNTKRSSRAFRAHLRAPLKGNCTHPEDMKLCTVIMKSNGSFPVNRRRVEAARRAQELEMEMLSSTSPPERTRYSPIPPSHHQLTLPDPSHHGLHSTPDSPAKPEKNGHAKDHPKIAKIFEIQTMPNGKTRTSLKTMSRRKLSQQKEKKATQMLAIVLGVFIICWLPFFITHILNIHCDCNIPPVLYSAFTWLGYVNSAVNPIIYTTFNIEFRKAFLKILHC
Method: The supernatant was aspirated, and the cell pellet was resuspended in stimulation buffer (1 × HBSS, 5 mM HEPES, 0.5 mM IBMX, 0.1% BSA).
The functional properties of compounds were evaluated using the LANCE Ultra cAMP Detection Kit (PerkinElmer). D2 receptors in HEK293 cells are coupled to Gi subtype and decreased cAMP production. […] Each compound was tested in triplicate at eight concentrations (10^−11–10^−4 M).
For quantification of cAMP levels, cells (5 µL) were incubated with 5 µL mixture of compounds (tested ligand and forskolin with 100 nM quinpirole for antagonist binding mode) for 30 min at room temperature in 384-well white opaque microtiter plate (PerkinElmer). After incubation, the reaction was stopped and cells were lysed by the addition of 10 µL working solution (5 µL Eu-cAMP and 5 µL ULight-anti-cAMP). The assay plate was incubated for 1 h at room temperature. Time-resolved fluorescence resonance energy transfer (TR-FRET) signal was detected by an Infinite M1000 Pro (Tecan) using instrument settings from the LANCE Ultra cAMP Detection Kit manual.

5-HT2AR [7] = target: T4, 5-HT2AR (Homo sapiens, UniProt P28223); test: Radioligand binding assay, [3H]-ketanserin displacement; set-up: host or cells: CHO-K1; membrane preparation
T4 sequence (P28223 whole entry): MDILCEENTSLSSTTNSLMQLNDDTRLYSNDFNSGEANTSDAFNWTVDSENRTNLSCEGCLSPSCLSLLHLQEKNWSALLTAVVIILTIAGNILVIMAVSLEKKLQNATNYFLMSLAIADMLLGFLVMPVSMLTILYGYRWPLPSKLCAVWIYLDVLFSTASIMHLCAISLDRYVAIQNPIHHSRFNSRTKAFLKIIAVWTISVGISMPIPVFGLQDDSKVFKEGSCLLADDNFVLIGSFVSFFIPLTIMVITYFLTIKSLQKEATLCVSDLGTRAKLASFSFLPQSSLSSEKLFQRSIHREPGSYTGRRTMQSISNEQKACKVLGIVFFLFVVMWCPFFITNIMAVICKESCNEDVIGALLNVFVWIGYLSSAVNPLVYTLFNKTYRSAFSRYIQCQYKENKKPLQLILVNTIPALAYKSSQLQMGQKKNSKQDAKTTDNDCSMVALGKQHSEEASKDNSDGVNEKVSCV

5-HT7R = 5-HT7R (Homo sapiens, UniProt P34969); test: Radioligand binding assay, [3H]-5-CT displacement
Chain of 5-HT7R (P34969 1-432): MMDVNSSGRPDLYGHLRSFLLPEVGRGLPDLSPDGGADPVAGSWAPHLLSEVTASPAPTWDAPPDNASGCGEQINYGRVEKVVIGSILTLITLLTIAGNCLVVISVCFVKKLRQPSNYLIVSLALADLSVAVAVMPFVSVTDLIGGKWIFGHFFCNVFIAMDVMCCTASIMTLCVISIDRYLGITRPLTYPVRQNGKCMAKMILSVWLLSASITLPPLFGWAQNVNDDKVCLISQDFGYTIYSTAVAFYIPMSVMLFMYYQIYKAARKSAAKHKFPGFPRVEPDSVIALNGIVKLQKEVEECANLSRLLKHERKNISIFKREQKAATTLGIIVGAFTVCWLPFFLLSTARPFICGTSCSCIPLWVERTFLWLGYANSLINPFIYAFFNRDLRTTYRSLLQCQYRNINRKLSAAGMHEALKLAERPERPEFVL

5-HT1AR = target: T5, 5-HT1AR (Homo sapiens, UniProt P08908); test: Radioligand binding assay, [3H]-8-OH-DPAT displacement; conditions: pKi 5-HT1A, Table 1
T5 sequence (P08908 1-422): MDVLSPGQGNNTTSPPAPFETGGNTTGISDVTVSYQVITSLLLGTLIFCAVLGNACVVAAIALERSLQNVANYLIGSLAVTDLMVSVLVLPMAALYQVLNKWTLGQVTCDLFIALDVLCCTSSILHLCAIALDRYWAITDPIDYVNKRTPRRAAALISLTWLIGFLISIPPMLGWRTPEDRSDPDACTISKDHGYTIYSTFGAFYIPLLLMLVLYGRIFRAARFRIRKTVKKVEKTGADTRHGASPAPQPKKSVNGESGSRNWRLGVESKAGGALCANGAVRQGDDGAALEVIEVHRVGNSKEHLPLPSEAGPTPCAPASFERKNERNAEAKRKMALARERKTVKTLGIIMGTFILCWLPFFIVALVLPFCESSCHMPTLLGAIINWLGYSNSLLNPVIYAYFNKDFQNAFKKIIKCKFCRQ

D2R [8] = target: T3, D2R; test: Radioligand binding assay, [3H]-raclopride displacement
5-HT2AR [9] = target: T4, 5-HT2AR; test: 5-HT2AR function (no method given)
5-HT6R = 5-HT6R (Homo sapiens, UniProt P50406); test: Radioligand binding assay, [3H]-LSD displacement
Chain of 5-HT6R (P50406 whole entry): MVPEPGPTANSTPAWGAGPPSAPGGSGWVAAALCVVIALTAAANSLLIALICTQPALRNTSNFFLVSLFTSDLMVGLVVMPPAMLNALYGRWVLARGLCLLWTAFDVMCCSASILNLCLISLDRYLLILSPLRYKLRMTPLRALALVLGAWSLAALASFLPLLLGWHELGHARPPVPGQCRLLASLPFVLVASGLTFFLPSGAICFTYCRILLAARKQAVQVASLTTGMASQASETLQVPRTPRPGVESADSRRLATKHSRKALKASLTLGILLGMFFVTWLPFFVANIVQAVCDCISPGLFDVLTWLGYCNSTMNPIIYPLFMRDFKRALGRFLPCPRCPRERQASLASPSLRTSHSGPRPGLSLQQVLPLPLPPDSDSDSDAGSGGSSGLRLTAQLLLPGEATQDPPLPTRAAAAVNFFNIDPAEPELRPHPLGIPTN

5-HT6 [10] = tested on: 5-HT6; set-up: method as in Dupuis et al. (2008) [31]; conditions: Figure 8; ref Dupuis et al. (2008) [31]; cited from earlier work
D2 = target: D2; set-up: method as in Dupuis et al. (2008) [31]; conditions: Figure 8; ref Dupuis et al. (2008) [31]; cited from earlier work
5-HT6 [11] = conditions: read-out: Ki 5-HT6; Figure 8; ref Dupuis et al. (2008) [31]; cited from earlier work

T1 sequence (P50406 whole entry): as above

In the case of `Clc1ccc2c(CCNCc3c[nH]c4ccccc34)c[nH]c2c1` [Compound 5], the EC50 (Human Serotonin 5-HT6R [1]) is reported as 157 nM, the Kb (Human Serotonin 5-HT6R [2]) is reported as 136 nM and the “Metabolic Pathway, metabolite M1” value [3] is reported as “hydroxylation”. For the same molecule, the “effect on CYP3A4 activity” value (CYP3A4) was “inducer of CYP3A4”, the HepG2 cell viability (HepG2 cell line) was ~ 80 % of the control and the “effect on HepG2 proliferation in words” value (HepG2 cell line) was “slight antiproliferative effect”. For the same molecule, the permeability in words [4] was “medium permeability coefficients”, the “number of hydroxylated metabolites” value [5] was “only one hydroxylated metabolite” and the Papp at 5 h, 200 µM (in vitro) was 7.09 ± 1.24 ×10⁻⁶ cm/s. The Kb (D2R [6]; antagonistic mode, 100 nM quinpirole, read-out: D2 Kb) was 104 nM, the EC50 (D2R [6]; read-out: EC50 (D2 receptor, antagonistic function)) was 104 nM and the Ki (5-HT2AR [7]; Table 1, read-out: pKi 5-HT2A (converted)) was 1170 nM. The Ki (5-HT7R) was 15800 nM, the Ki (5-HT1AR) was 3310 nM and the Ki (D2R [8]; Ki D2, Figure 8) was 155 nM. It also gave a Ki (D2R [8]; pKi D2, Table 1) of 155 nM.

In the case of `c1ccc2c(CCNCc3c[nH]c4ccccc34)c[nH]c2c1` [Compound 1, [2-(1H-indol-3-yl)ethyl][(1H-indol-3-yl)methyl]amine], the Kb (Human Serotonin 5-HT6R [2]) is reported as 151 nM, the “5-HT2AR function in words” value (5-HT2AR [9]) is reported as 5-HT2AR partial agonist and the Ki (5-HT2AR [7]; Ki 5-HT2A) is reported as 20 nM. The Ki (5-HT2AR [7]; pKi 5-HT2A, Table 1) was 20 nM, the Ki (5-HT6R; Ki 5-HT6, Figure 8) was 172 nM and the Ki (5-HT6R; pKi 5-HT6, Table 1) was 174 nM. For the same molecule, the Ki (5-HT7R) was 28800 nM, the Ki (5-HT1AR) was 1510 nM and the “pKi D2” value (D2R [8]; Table 1) was 7.22.

For `O=C1Cc2cc(CCN3CCN(c4nsc5ccccc45)CC3)c(Cl)cc2N1` [Ziprasidone], the Kb (5-HT6 [10]) is given as 57.5 nM, the Ki (D2) is given as 0.8 nM and the Ki (5-HT6 [11]) is given as 20 nM.

— publication PMC8347595, “N-Skatyltryptamines—Dual 5-HT6R/D2R Ligands with Antipsychotic and Procognitive Potential” (Molecules, 2021)
